Source: patent US20230399298A1 (priority 2020, published 2023)

Legend:
[1] = Raw material harsh stability comparison test (60° C., HPLC); assay type: physicochemical
Protocol: (§1) The HPLC conditions used in the present disclosure were as follows, and the purity of donepezil ether palmitate hydrochloride was measured. • 1) detector: ultraviolet absorption photometer (measurement wavelength: 276 nm) • 2) column: YMC-Pack Pro C18 (4.6×250 mm, 5 μm) • 3) mobile phase A: Solution obtained by dissolving 1.88 g of sodium 1-hexanesulfonate in 1000 mL of purified water, and then adding 1.0 mL of phosphoric acid thereto, wherein each amount of reaction substances was accurately weighed. • 4) mobile phase B: acetonitrile
Experiments were conducted to evaluate the raw material harsh stability over time of donepezil ether palmitate (DEP) and donepezil ether palmitate hydrochloride (DEP HCl).
Specifically, in the experiments, each compound was stored under a condition of 60° C., and the chemical stability thereof was analyzed by HPLC (purity and increased amount of related substances).

[2] = Formulation stability comparison test (suspension in benzyl benzoate and castor oil, 60° C. and 80° C., HPLC); assay type: physicochemical
Protocol: as §1
Experiments were conducted to evaluate the formulation stability over time of donepezil ether palmitate (DEP) and donepezil ether palmitate hydrochloride (DEP HCl).
Specifically, each of DEP and DEP HCl was mixed with benzyl benzoate and castor oil to prepare a suspension, and then stored at 60° C. and 80° C. The chemical stability was analyzed by HPLC (purity and increased amount of related substances), and results thereof are shown in Table 4.

[3] = Raw material accelerated stability comparison test (40° C., RH 75%, light-shielding seal, HPLC); assay type: physicochemical
Protocol: as §1
accelerated stability over time of donepezil ether palmitate (DEP) and donepezil ether palmitate hydrochloride (DEP HCl).
Specifically, in the experiments, each compound was stored in a light-shielding seal under accelerated conditions (40° C., RH 75%), and the chemical stability thereof was analyzed by HPLC (purity and increased amount of related substances).

For `CCCCCCCCCCCCCCOCC(=O)OC1=C(CC2CCN(Cc3ccccc3)CC2)Cc2cc(OC)c(OC)cc21` [DEP, 2-((1-benzylpiperidin-4-yl)methyl)-5,6-dimethoxy-1H-inden-3-yl 2-(tetradecyloxy)acetate], which “purity decreased by” value ([1]; 2nd week versus initial) is on record?
Its value is “about 18.60%”.

What about the PT impurity ([1]; Day 1) of the same molecule?
The PT impurity was 1.61%.

What about the Purity ([1]; Day 1) of the same molecule?
The Purity was 95.44%.

What about the PT impurity ([1]; Day 3) of the same molecule?
The PT impurity was 3.33%.

What about the Purity ([1]; Day 3) of the same molecule?
The Purity was 92.05%.

What about the Purity ([1]; Initial) of the same molecule?
The Purity was 99.76%.

What about the PT impurity ([1]; Week 2) of the same molecule?
Its PT impurity is 4.39%.

What about the Purity ([1]; Week 2) of the same molecule?
The Purity was 81.16%.

What about the Purity ([2]; Day 1 at 80° C.) of the same molecule?
The Purity was 97.96%.

And the Purity ([2]; Initial)?
Its Purity is 99.79%.

And the Purity ([2]; Week 1 at 60° C.)?
The Purity was 97.54%.

What about the melting point of the same molecule?
Its melting point is 55.1 °C.

What about the “purity decreased by” value ([3]; 6th month versus initial) of the same molecule?
The value was “about 2.47%”.

And the PT impurity ([3]; Initial)?
Its PT impurity is 0.02%.

What about the Purity ([3]; Initial) of the same molecule?
The Purity was 99.22%.

And the PT impurity ([3]; Month 1)?
The PT impurity was 0.04%.

What about the Purity ([3]; Month 1) of the same molecule?
The Purity was 99.05%.

And the PT impurity ([3]; Month 3)?
The PT impurity was 0.08%.

What about the Purity ([3]; Month 3) of the same molecule?
Its Purity is 98.65%.

What about the PT impurity ([3]; Month 6) of the same molecule?
Its PT impurity is 0.13%.

What about the Purity ([3]; Month 6) of the same molecule?
Its Purity is 96.75%.
